“And” between values parts separate entries of the source, which are not always exact repeats. Equal entries are not always repeated. Where two headings read alike, the source gives them in different places.
Legend:
PC-3 cells [1] = conditions: 5 weeks, vs controls
Protocol: Animal experimentation involved the use of BALB/c nude mice. On day one of the experiment 6 week old BALB/c nude mice were anaesthetized with an intraperitoneal injection of ketamine 100 mg/kg and xylazine 20 mg/kg. Under magnification 1×10^6 PC-3 cells with viability greater than 95%, were injected into the dorsolateral prostate, essentially as described in Corcoran, N. M., Najdovska, M., and Costello, A. J. (2004), J. Urol., 171:907-910.
On day 3 of the experiment all mice were switched to the D19101 minimal selenium diet with an assayed selenium content of 0.07 ppm (Research Diets Inc., New Brunswick, N.J., USA). […] After 5 weeks of supplementation mice were culled and tumor-containing prostate glands were then weighed and measured with a Vernier calliper. The retroperitonium was then explored under magnification cephadally to the level of the renal veins and lymph nodes measuring greater than 0.5 mm identified.
The degree of apoptosis in tissue samples was determined using an in situ TUNEL Cell Death Detection Kit (Roche Applied Science) according to the manufacture's instructions. The number of brown staining cells at high power (×400) were counted in 10 randomly chosen fields in areas where necrosis was absent on H&E staining of adjacent sections.
The rate of tumor cell proliferation was determined by in vivo BrdU incorporation. Two hours prior to culling, the mice were injected with 50 mg/kg BrdU (Sigma) intraperitoneally. 5 μm sections were cut, fixed in absolute methanol at 4° C. for 10 minutes. Sections were rehydrated in PBS and incubated in 2 N HCl for 1 hour at 37° C. to denature the DNA. The acid was neutralized by immersing the slides in 0.1 M borate buffer (pH 8.5). Following 3×PBS washes the samples were incubated with a monoclonal antibody to bromodeoxyuridine (BrdU) (Roche Applied Science) at a concentration of 5 μg/mL diluted in 0.1% BSA in PBS for 1 hour at room temperature, then overnight at 4° C. Samples were washed 3× times in PBS and incubated for 1 hour with a biotinylated link immunoglobulin mixture (DAKO Corporation). […] 10 fields at high power (×400) were chosen at random and the number of brown staining cells counted.

PC-3 cells [2] = conditions: 0.25 mM, 54 hours
Protocol: BrdU Incorporation assays and immunofluorescence were carried out by plating 2.5×10^3 PC-3 cells and allowing them to attach overnight. […] Cells were incubated for a further 16 hours, then washed 3× in PBS and fixed in 4% PFA for 10 minutes at room temperature.
Mouse monoclonal anti-BrdU and antibodies were used as the primary antibodies and anti-mouse 488 Alexa, as the secondary antibodies. The percentage of cells incorporating BrdU was determined by counting the number of green staining nuclei per number of DAPI positive cells. 100 DAPI positive cells were counted per coverslip and the experiment performed in triplicate.

PC-3 cells [3] = system: PC-3 cells
Protocol: Cells were allowed to grow until the indicated time points, then harvested, washed in PBS and fixed in ice cold 70% ethanol for 15 minutes. Cells were washed with PBS and resuspended in PBS containing 40 μg/mL of propidum iodide (Sigma) and […] of RNase. DNA histograms were generated for each reading and the proportion of cells present in the G1 and G2/M peaks determined. Results were obtained for three independent experiments.

Akt = assay: Immunoblot of Akt phosphorylation in serum starved PC-3 cells; format: cell-based, human; conditions: 0.5 mM
Excerpt: The following antibodies were obtained from Cell Signaling Technology (Beverly, Mass., USA) unless otherwise stated: anti-p27^KIP1 (bd Pharmingen), anti-p21^CIP1 , ANTI-CYCLIN d1, ANTI-CYCLIN d3, ANTI-CDK4, ANTI-CDK6, ANTI-PHOSPHO rb (Ser807/811), anti-RB, anti-phospho Akt (Ser473), anti-phospho Akt (Thre308), anti-Akt, anti-phospho PDK1 (Ser241), anti-phospho PDK1 (Tyr373/376), anti-phospho GSK-3β, anti-phospho mTOR (Ser2448), anti-mTOR, anti-βIII tubulin (Promega).
To determine the effect of selenate on the phosphorylation of proteins involved in the PI3K/Akt signaling cascade, 5×10^5 PC-3 cells were allowed to attach for 10 hours. […] Cells were lysed in ELB (250 mM NaCl, 50 mM HEPES pH 7.0, 5 mM EDTA, 0.5 mM DTT, 0.2% TX100, 20 mM sodium fluoride, 2 mM sodium pervanadate, Complete Protease Inhibitor Cocktail (Roche)). Lysates were centrifuged for 15 minutes at 4° C. Protein concentration was determined using the BCA system (Sigma) and equal amounts of protein were loaded into each lane of a SDS-polyacrylamide gel. The proteins were transferred onto PVDF (Millipore) membranes and detected with anti-mouse or anti-rabbit secondary antibodies couples to horseradish peroxidase (HRP) and chemiluminescence using the SuperSignal West Dura (Pierce). Membranes were stripped using the Restore Western Blot Stripping Buffer (Pierce).

[4] = system: prostate tumor PC-3 cells
Protocol: 1×10^6 prostate tumor PC-3 cells were injected into the prostate of nude mice. […] Paclitaxel at 10 mg/kg was administered intraperitoneally once per week in 10% Cremophor EL/25% ethanol/65% PBS solution to those animals receiving paclitaxel. 10 animals were used per group. After 5 weeks post injection, animals were sacrificed, the prostates removed, the appendages dissected off and the tumors weighed. The retroperitoneum was explored for lymphadenopathy and lymph nodes greater than 0.5 mm diameter excised. The tumors were then step sectioned at 50 micron steps and tumor volumes calculated from the digitized images using the standard volumetric formula […].

[5] = system: human prostate cancer PC-3 cells; assay: Cell toxicity by Trypan Blue Exclusion, selenate versus selenite; conditions: 5 μM or 50 μM, 24 to 96 hours
Protocol: 5×10^3 human prostate cancer PC-3 cells were seeded in a 24-well dish and 8 hours later were treated with either 5 μM or 50 μM of selenate or selenite. The dose range of 5 μM or 50 μM is equivalent to 0.1 mg/kg to 1.25 mg/kg. Cells were harvested at 24, 48, 72 and 96 hours following the addition of selenate or selenite and the percentage of viable cells as assessed by Trypan Blue staining was determined.
All cells in the tissue culture wells were then harvested sequentially at periods between 24 and 96 hours following addition of the treatments. The percentage of viable cells were then determined using the Trypan Blue exclusion assay.

O=[Se](=O)(O)O [sodium selenate] was tested, and the “number of retroperitoneal lymph nodes” value (PC-3 cells [1]; 5 ppm in drinking water, lymph nodes greater than 0.5 mm) was “significantly decreased”, the “BrdU incorporation in prostate tumors” value (PC-3 cells [1]; 5 ppm in drinking water) was “significantly impaired” and the “apoptosis (Tunel assay) in prostate tumors” value (PC-3 cells [1]; 5 ppm in drinking water) was “not significantly different”. For the same molecule, the tumor volume difference (PC-3 cells [1]; 5 ppm in drinking water) was “just failed to reach significance”, the “primary tumor growth assessed by the prostate weight index” value (PC-3 cells [1]; 5 ppm selenium as sodium selenate in drinking water) was “significantly inhibit” and the “G1/S progression (BrdU/FrdU positive nuclei)” value (PC-3 cells [2]) was “severely impeded”. The “percentage of the cell population in G1” value (PC-3 cells [3]; 0.25 and 0.5 mM, 24 hours, control 55%) was 69-70%, the “percentage of PC-3 cells at G2/M phase” value (PC-3 cells [3]; 48 hours) was “decreased” and the “percentage of the cell population in G1” value (PC-3 cells [3]; 48 hours, dose- and time-dependent) was “increased”. The “percentage of cells at G2/M phase” value (PC-3 cells [3]; increasing concentrations (0.25, 0.5 mM), 24 hours, control 28%) was 19% and 24%, the “total cellular Akt levels (pan Akt)” value (Akt) was “essentially unchanged” and the “Akt activation after the transient boost” value (Akt; later exposure times) was “marked and prolonged deactivation”. For the same molecule, the “Akt phosphorylation at Ser473” value (Akt; various time points, FIG. 4D) was “profoundly inhibited”, the “phosphorylation of Akt at Ser473 and Thr308, early” value (Akt; within 10 minutes of exposure) was “transient boost” and the prostate tumor weights ([4]; 5 ppm selenium in drinking water and/or paclitaxel 10 mg/kg intraperitoneally once per week, 5 weeks, control received Cremophor/ethanol carrier) was “not reduced compared to the control”. For the same molecule, the “microvessel density in the tumors” value ([4]; selenate alone, 5 ppm in drinking water) was “greater effect on reducing microvessel density in the tumors than on tumor volumes”, the “cytotoxic effect (Trypan Blue exclusion)” value [5] was “not cytotoxic” and the “percentages of viable cells” value [5] was “equivalent to the control untreated samples”.

— US20080081039A1, “Inorganic Selenium For Treatment Of Cancer” (priority 2004, published 2008)
